Measured values: patent US12258424B2, “Polypeptides and compositions comprising the same” (priority 2020, dated 2025)
pIC50: −log10 of the molar value. Values joined by “and” are separate entries in the source; they are usually repeats but may differ in a detail not shown here. Equal entries are not always repeated. Residues, ends and D or L forms follow the SMILES beside them.

Tests used:
[1] = target: mPD-L1 (Mus musculus, UniProt Q9EP73); experiment: Blockade of the mouse PD-1/PD-L1 interaction, mouse PD-L1 protein; format: binding; set-up: purchased G&P Biosciences FCL3502B (PD-L1)
Sequence of mPD-L1 (Q9EP73 19-239 limits assumed): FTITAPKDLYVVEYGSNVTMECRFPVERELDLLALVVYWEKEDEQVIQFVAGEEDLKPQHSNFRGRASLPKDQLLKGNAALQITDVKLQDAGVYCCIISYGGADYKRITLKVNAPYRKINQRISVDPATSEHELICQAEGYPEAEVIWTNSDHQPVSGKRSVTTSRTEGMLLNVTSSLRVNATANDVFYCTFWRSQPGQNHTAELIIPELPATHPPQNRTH
Description: (§1) Ninety-six-well plates were coated with 100 ng of PD-L1 protein (G&P Biosciences, human PD-L1 ECD, cat #FCL0784B. mouse PD-L1, cat #FCL3502B) and later blocked with 2% BSA for 2 hours at room temperature. Various concentrations of peptides were loaded into the wells and incubated for 1 hour at room temperature. […] Streptavidin-HRP (R & D systems) and chromogenic substrate were added into the wells. OD450 was then recorded and referenced to OD540.

[2] = target: T1, recombinant human PD-L1 ECD protein (Homo sapiens, UniProt Q9NZQ7); experiment: SPR binding kinetics and affinity to immobilized human PD-L1; details: read-out: Ka
T1 construct: against the recombinant human PD-L1 ECD protein were evaluated using SPR; purchased G&P Biosciences FCL0784B
T1 sequence (Q9NZQ7 19-238 limits assumed): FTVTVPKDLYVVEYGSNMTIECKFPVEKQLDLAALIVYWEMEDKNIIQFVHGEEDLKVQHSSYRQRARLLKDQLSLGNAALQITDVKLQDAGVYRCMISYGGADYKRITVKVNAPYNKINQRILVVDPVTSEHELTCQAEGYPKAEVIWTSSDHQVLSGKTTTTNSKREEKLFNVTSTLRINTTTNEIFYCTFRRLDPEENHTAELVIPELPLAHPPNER
Description: In such aspects, the equilibrium dissociate constant KD value against recombinant human PD-L1 can be determined according to an KD to PD-L1 SPR Assay. The KD to PD-L1 SPR Assay can include the use of Surface Plasmon Resonance (SPR), such as the B14500, Biosensing Instrument, and can include the following procedures. The PD-L1 protein can be diluted to 10 μg/mL with sodium acetate buffer (pH 5.0, GE Healthcare, PA) and covalently coated onto a CM5 sensor chip (CM Dextran Sensor Chip, Biosensing Instrument) using the standard Amine Coupling Kit (GE Healthcare, PA). Approximately 6500 RU of PD-L1 protein are immobilized onto the chip. A second channel is used as a reference. HBS-EP+ buffer (GE Healthcare) can be employed at a flow rate of 60 μL/min. A series of concentrations of each peptide (15, 30, 60, 125, 250, 500, 1000, 5000 and 10,000 nM) is prepared in HBS-EP+ running buffer to obtain the equilibrium dissociation constant (KD) values of the peptides. The CM5 sensor chip can be regenerated with 10 mM NaOH for 20 s. The results can be analyzed using the software of Bi data analysis software.
Evaluation of Binding Kinetics and Affinity By Surface Plasmon Resonance (SPR). Binding affinities of the PD-L1 specific peptides for human PD-L1 protein were determined by SPR (B14500, Biosensing Instrument). PD-L1 protein was diluted to 10 μg/mL with sodium acetate buffer (pH 5.0, GE Healthcare, PA) and covalently coated onto a CM5 sensor chip (CM Dextran Sensor Chip, Biosensing Instrument) using the standard Amine Coupling Kit (GE Healthcare, PA). Approximately 6500 RU of PD-L1 protein were immobilized onto the chip. A second channel was used as a reference. HBS-EP+ buffer (GE Healthcare) was employed at a flow rate of 60 μL/min. A series of concentrations of each peptide (15, 30, 60, 125, 250, 500, 1000, 5000 and 10,000 nM) were prepared in HBS-EP+ running buffer to obtain the equilibrium dissociation constant (KD) values of the peptides. The CM5 sensor chip was regenerated with 10 mM NaOH for 20 seconds. The results were analyzed using the software of Bi data analysis software. Binding affinities of the anti-PD-L1 peptides to BSA was also assessed following the procedure for human PD-L1.

[3] = tested on: DU145 cancer cell; format: cell-based, human
Description: as §1
The blocking efficiency of the anti-PD-L1 peptides at 10 μM (FIG. 2c). […] The IC50 of each peptide was also determined using recombinant human PD-L1 protein and DU-145 cancer cells.

[4] = tested on: 4T1 cancer cell; format: cell-based, mouse
[5] = tested on: CT26 tumor-bearing Balb/C mice; experiment: Survival of CT26 tumor-bearing Balb/C mice; format: in vivo, mouse
Source text: Animal Study. The animal protocol was approved by the University of Missouri-Kansas City, Institutional Animal Care and Use Committee (IACUC). Five-week old male and female Balb/c mice were purchased from Charles Rivers Laboratories (Wilmington, Mass.) and housed in a temperature and humidity controlled room on a 12-hour light-dark cycle. Approximately 5×10^5 CT26 cells were subcutaneously injected into the right flank. The mice were randomly divided into five different groups (10 mice/group, 50% female, 50% male). The mice were intraperitoneally injected with 2 mg/kg peptide daily when the tumor size reached 50-100 mm^3. The anti-mouse PD-L1 antibody (10F.9G2, BioXcell) was administrated as a positive control at a dose of 10 mg/kg every two days. The tumor size was assessed with a caliper and calculated with the formula 0.5×length×width^2. ELISA kits of PD-L1 (Cat #DY1019-05), IFNγ (Cat #DY485-05), and IL-6 (Cat #DY406-05) were used to measure the expressions of PD-L1, IFNγ, and IL-6, respectively, in tumors as per the company's instructions (R & D Systems, Minneapolis, MN).
In this Example, mice were intraperitoneally injected with the CLP002 (SEQ ID NO:2) and CLP003 (SEQ ID NO:3) peptides daily or the anti-mouse PD-L1 antibody every other day from day 4 to day 17 (see survival curves in FIG. 7a). Specifically, CT26 tumor-bearing Balb/C mice (n=10, 5 male and 5 female) were intraperitoneally injected with the anti-PD-L1 peptides (2 mg/Kg) daily and the anti-mouse PD-L1 antibody (10 mg/Kg) every other day from day 4 to day 17. GraphPad Prism 7 software (San Diego, Calif.) was used for statistical analysis. Comparison of two survival curves were conducted using the Gehan-Breslow-Wilcoxon test. […] By contrast, only 20% of the mice in the CLP002 (SEQ ID NO:2) group were dead by day 17.

**Q.** Which results are given for `CC(C)C[C@H](NC(=O)[C@H](CC(N)=O)NC(=O)[C@H](Cc1c[nH]c2ccccc12)NC(=O)[C@@H](NC(=O)[C@H](Cc1ccc(O)cc1)NC(=O)[C@H](Cc1ccc(O)cc1)NC(=O)[C@H](CO)NC(=O)[C@H](CCCNC(=N)N)NC(=O)[C@H](Cc1c[nH]cn1)NC(=O)[C@@H](N)Cc1c[nH]c2ccccc12)[C@@H](C)O)C(=O)N[C@@H](CC(N)=O)C(=O)N[C@H](C(=O)O)[C@@H](C)O` [CLP002] (H-WHRSYYTWNLNT-OH; N-terminus and C-terminus assumed)?
**A.** Blocking efficiency against mouse PD-1/PD-L1 interaction ([1]; at 10 μM, FIG. 2f): 71%; Blocking Efficiency (%) ([1]; mouse PD-L1 protein): 71% and 68%; pIC50 ([1]; mouse PD-L1 protein): 5.72; kon [2]: 4520 M⁻¹ s⁻¹; pIC50 ([3]; 2 h): 5.84; Blocking Efficiency (%) ([3]; DU-145 cancer cells): 80%; Blocking Efficiency (%) ([4]; 4T1 cancer cell): 61%; pIC50 ([4]; 2 h): 5.61; Tumor growth in the survival study ([5]; Example 7, individual growth curves): inhibited tumor growth; Mice showing a response to treatment (in words) ([5]; n=10): Eight mice showed a response; Mice dead by day 17 ([5]; n=10, saline group 90%): 20%; Survival of tumor-bearing mice ([5]; treatment from day 4 to day 17): improved the survival
